Reference: patent EP0688331B1, “NEW SULFATED LYSO-GANGLIOSIDE DERIVATIVES” (FIDIA S.p.A., priority 1993, dated 1994)
pEC50: −log10 of the molar value. Where two headings read alike, the source gives them in different places.

Experiments:
[1] = tested on: cerebellar granule cells; details: read-out: ED50 (antineurotoxic activity); 2 hrs pretreatment, then 100 µM glutamate 60 minutes; MTT after 24 hr
Protocol: Primary cultures of cerebellar granule cells have been prepared from 8-day-old Sprague-Dawley rats.
Neurons have been grown in 35 mm dishes for 11-13 days and kept in a humidified environment (95% air and 5% CO2) at 37° C. […] Glial proliferation was prevented by cytosine arabinofuranoside.
Concentrations from 100 µM to 5 µM have been tested.
The cell culture medium was aspirated from the dishes (and properly stored). The dishes were washed (3x2 ml) with Locke's solution, then the solutions (1.5 ml) containing the compound to be tested were added, and incubated for 2 hrs in incubator at 37° C (5% CO2).
The treated cells were washed (3x2 ml) with Locke's solution + 10% fetal calf serum heat inactivated (without glutamic acid), then washed (3x2 ml) in Locke's solution in the absence of Mg^2+. […]
At the end of the incubation the cell viability measured by using the MTT colorimetric test was evaluated (Mosmann T., Rapid colorimetric assay for cellular growth and survival: application to proliferation and cytotoxicity assays. J. Immunol. Meth. 65, 55-63, 1983 and modified according to Skaper S.D. et al.: Death of cultured hippocampal pyramidal neurons induced by pathological activation of N-methyl-Daspartate receptors is reduced by monosialogangliosides. J. Pharm. and Exp. Ther. 259, 1, 452-457, 1991). The data are expressed as ED50 (µM).

[2] = tested on: Mouse neuroblastoma cells C1300, Neuro-2A clone; test: Neuritogenic activity (% of neurite-bearing cells under the optical microscope); type: cell-based; details: for EC50: neuroblastoma cells N2A, % of neurite-bearing cells, read-out: ED50 (µM) neuritogenic effect
Protocol: Mouse neuroblastoma cells C1300, Neuro-2A clone (obtained from American Cell Type Culture Collection - Bethesda, Md) have been seeded at a density of 10,000 cells/well (24-Falcon) in tissue culture medium containing Dulbecco's modified Eagle medium (DMEM, Gibco), 10% fetal calf serum heat inactivated (FCS, lot 7201 Seromed), penicillin (100 units per ml, Irvine) and L-glutamine (2 mM, Sigma). Cells have been incubated at 37° C for 24 hr, then the medium was withdrawn and substituted with 350 µl of fresh culture medium with and without the compounds to be tested.
The derivatives have been solubilized in chloroform/methanol (2/1) and then dried under a flow of nitrogen.
For the different compounds, consecutive dilutions in tissue culture medium (concentrations from 50 µM to 5 µM) were performed.
Culture dishes incubated with the tested compounds were analyzed under a phase contrast microscope (250x) : 9 optical fields were chosen with prefixed coordinates and photographed. Then, the total number of cells were counted, as well as the number of neurite-bearing cells (length at least double of the cell diameter) in blind on every picture. The percentage of neurite-bearing cells was determined following the counting of at least 100 cells, and the data were expressed by the respective ED50 (µM) (Facci L. et al.: Promotion of neuritogenesis in mouse neuroblastoma cells by exogenous ganglioside GM1. J. Neurochem. 229-305, 1984).

[3] = tested on: cerebellar granule cells; details: read-out: ED50 (antineurotoxic activity); co-treatment with 100 µM glutamate, 30 minutes; MTT after 24 hours
Protocol: Thus, dilutions have been performed at different concentrations in Locke's solution (154 mM NaCl, 5.6 mM KCl, 3.6 mM NaHCO3, 2.3 mM CaCl2, 5.6 mM glucose, 4.6 mM Hepes, pH 7.4). Concentrations from 100 µM to 5 µM have been tested.
The cell culture medium was aspirated from the dishes (and properly stored). The dishes were washed (3x2 ml) with Locke's solution in the absence of Mg^2+. Then, 1.5 ml of Locke's solution (-Mg^2+) with or without 100 µM glutamate and with or without the compound to be tested were added. The incubation period lasted 30 minutes (37° C). Glutamate and the compound to be tested were then removed. The dishes were washed with Locke's solution in the presence of Mg^2+ (2x2 ml) and then incubated in the presence of the initial medium (properly stored) for 24 hours at 37° C in an incubator (5% CO2).
At the end of the incubation cell viability measured by means of the MTT colorimetric test was evaluated (Mosmann T.: Rapid colorimetric assay for cellular growth and survival: application to proliferation and cytotoxicity assays. J Immunol. Meth. 65, 55-63, 1983 and modified according to Skaper S.D. et al.: Death of cultured hippocampal pyramidal neurons induced by pathological activation of N-methyl-D-aspartate receptors is reduced by monosialogangliosides. J. Pharm. and Exp. Ther. 259,1, 452-457, 1991). Data were expressed as ED50 (µM).

[4] = target: T1, CD4 (Homo sapiens, UniProt P01730); test: Expression of the CD4 molecule in Molt 3 cells (flow cytofluorimetry with anti-CD4 mAb); type: cell-based; details: 60 minutes at 37° C
T1 construct: 100% of Molt 3 cells express CD4; host or cells: Molt 3 cells (human acute lymphoblastic leukemia T-cell line)
Excerpt: Molt 3 cells (American Type Culture Collection - Rockville, MD, USA) have been utilized, human tumoral cell lines derived from an acute lymphoblastic leukemia and formed by T lymphocytes expressing CD4 on their surface. Such a cell line was chosen due to the fact that it overlaps, as regards the expression of the CD4 molecule, human T lymphocytes obtained from peripheral blood. 100% of Molt 3 cells express CD4, whereas only part of human T lymphocytes from peripheral blood express CD4 in a proportion varying from subject to subject. The Molt 3 model has therefore the advantage of allowing a better experimental reliability.
Molt 3 cells (1x10^6) have been incubated with different concentrations of Liga 179 (from 1 µg/ml to 500 µg/ml) for 60 minutes at 37° C in buffered saline (PBS), with or without Fetal Calf Serum (FCS). When utilized, FCS was added at a concentration of 5 or 10 part/percentage (vol/vol). Following the incubation and the subsequent washing the percentage of cells expressing CD4 has been measured by flow cytofluorimetry using a monoclonal, fluoresceinated (mAb), specific for CD4 (DAKO T4, Dakopatts, Glostrup, Denmark) and a cytofluorimeter (EPICS V, Coulter Electronics, Hialeah, Florida, USA). In Table 4 are reported the data concerning the percentage of Molt 3 cells that express CD4, following the incubation with the compound under examination at the different concentrations utilized.

| Substance | pEC50 [1] | % of neurite-bearing cells ([2]; dose of 25 µM) | EC50 [2] [µM] | pEC50 [3] | % MOLT-3 cells expressing CD4 on the surface ([4]; 10 µg/ml, FCS 0 %, without compound 96.9) [%] | % MOLT-3 cells expressing CD4 on the surface ([4]; 50 µg/ml, FCS 0 %, without compound 96.9) [%] | % MOLT-3 cells expressing CD4 on the surface ([4]; 100 µg/ml, FCS 0 %, without compound 96.9) [%] | % MOLT-3 cells expressing CD4 on the surface ([4]; 100 µg/ml, FCS 5 %, without compound 98.6) [%] | % MOLT-3 cells expressing CD4 on the surface ([4]; 100 µg/ml, FCS 10 %, without compound 96.9) [%] | % MOLT-3 cells expressing CD4 on the surface ([4]; 200 µg/ml, FCS 5 %, without compound 98.6) [%] | % MOLT-3 cells expressing CD4 on the surface ([4]; 200 µg/ml, FCS 10 %, without compound 96.9) [%] | % MOLT-3 cells expressing CD4 on the surface ([4]; 500 µg/ml, FCS 5 %, without compound 98.6) [%] | % MOLT-3 cells expressing CD4 on the surface ([4]; 500 µg/ml, FCS 10 %, without compound 96.9) [%] |
| --- | --- | --- | --- | --- | --- | --- | --- | --- | --- | --- | --- | --- | --- |
| N-4-CHLOROBENZENESULFONYL-LYSOGM1 [Liga 123] | 5.22 | about 48% | 12 |  |  |  |  |  |  |  |  |  |  |
| N-BENZENESULFONYL-LYSO GM1 [Liga 125] |  |  | 25 |  |  |  |  |  |  |  |  |  |  |
| O-SULFATED N'SULFO-N'-LYSO-GM1 [Liga 179] |  |  |  | 4.82 | 0 | 0 | 0 | 15.5 | 86.5 | 0 | 14.6 | 0 | 0 |
